Measured values: ChEMBL document CHEMBL5465560, “Selectivity Literature for EUbOPEN Chemogenomic Library” (2024)
Each block holds one compound with its values, some of them ahead of it.

Columns and labels:
[1] = biological target: T1, Mitogen-activated protein kinase kinase kinase kinase 3 (Homo sapiens) (UniProt Q8IVH8); assay: Selectivity interaction (LanthaScreen Eu Kinase Binding Assay) EUB0001632a MAP4K3; conditions: at 10 µM
T1 sequence (whole entry): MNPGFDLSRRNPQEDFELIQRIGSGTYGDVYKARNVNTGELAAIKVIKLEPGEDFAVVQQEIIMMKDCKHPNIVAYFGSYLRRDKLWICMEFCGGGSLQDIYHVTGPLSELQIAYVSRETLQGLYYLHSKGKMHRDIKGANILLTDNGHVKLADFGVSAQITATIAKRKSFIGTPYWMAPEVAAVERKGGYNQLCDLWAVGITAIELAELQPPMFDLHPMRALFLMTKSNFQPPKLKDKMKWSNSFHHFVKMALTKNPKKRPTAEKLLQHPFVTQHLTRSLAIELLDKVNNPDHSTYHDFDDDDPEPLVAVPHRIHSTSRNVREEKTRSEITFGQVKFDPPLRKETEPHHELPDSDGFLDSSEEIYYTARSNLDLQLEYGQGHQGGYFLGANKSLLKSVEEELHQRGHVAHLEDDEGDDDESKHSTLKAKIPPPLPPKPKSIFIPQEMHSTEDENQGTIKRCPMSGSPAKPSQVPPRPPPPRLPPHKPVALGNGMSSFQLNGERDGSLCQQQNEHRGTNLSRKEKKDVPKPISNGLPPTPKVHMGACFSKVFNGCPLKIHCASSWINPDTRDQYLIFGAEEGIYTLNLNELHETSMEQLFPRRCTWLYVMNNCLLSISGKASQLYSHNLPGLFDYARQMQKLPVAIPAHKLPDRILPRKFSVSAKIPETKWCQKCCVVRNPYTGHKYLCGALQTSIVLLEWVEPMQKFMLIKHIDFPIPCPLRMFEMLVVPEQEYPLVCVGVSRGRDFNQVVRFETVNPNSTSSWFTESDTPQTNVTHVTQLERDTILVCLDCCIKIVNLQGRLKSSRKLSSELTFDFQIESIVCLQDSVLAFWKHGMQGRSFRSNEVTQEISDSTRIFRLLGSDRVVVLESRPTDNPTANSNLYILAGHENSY

[2] = biological target: Histone-lysine N-methyltransferase 2A (Homo sapiens) (UniProt Q03164); assay: Selectivity interaction (Methyltransferase screen (radiometric assays, panel of 8 PRMTs, 21 protein lysine methyltransferases, 3 DNA methyltransferases, and one RNA methyltransferase)) EUB0000272b MLL
Histone-lysine N-methyltransferase 2A (Homo sapiens), sequence (Q03164 1-2718 limits assumed): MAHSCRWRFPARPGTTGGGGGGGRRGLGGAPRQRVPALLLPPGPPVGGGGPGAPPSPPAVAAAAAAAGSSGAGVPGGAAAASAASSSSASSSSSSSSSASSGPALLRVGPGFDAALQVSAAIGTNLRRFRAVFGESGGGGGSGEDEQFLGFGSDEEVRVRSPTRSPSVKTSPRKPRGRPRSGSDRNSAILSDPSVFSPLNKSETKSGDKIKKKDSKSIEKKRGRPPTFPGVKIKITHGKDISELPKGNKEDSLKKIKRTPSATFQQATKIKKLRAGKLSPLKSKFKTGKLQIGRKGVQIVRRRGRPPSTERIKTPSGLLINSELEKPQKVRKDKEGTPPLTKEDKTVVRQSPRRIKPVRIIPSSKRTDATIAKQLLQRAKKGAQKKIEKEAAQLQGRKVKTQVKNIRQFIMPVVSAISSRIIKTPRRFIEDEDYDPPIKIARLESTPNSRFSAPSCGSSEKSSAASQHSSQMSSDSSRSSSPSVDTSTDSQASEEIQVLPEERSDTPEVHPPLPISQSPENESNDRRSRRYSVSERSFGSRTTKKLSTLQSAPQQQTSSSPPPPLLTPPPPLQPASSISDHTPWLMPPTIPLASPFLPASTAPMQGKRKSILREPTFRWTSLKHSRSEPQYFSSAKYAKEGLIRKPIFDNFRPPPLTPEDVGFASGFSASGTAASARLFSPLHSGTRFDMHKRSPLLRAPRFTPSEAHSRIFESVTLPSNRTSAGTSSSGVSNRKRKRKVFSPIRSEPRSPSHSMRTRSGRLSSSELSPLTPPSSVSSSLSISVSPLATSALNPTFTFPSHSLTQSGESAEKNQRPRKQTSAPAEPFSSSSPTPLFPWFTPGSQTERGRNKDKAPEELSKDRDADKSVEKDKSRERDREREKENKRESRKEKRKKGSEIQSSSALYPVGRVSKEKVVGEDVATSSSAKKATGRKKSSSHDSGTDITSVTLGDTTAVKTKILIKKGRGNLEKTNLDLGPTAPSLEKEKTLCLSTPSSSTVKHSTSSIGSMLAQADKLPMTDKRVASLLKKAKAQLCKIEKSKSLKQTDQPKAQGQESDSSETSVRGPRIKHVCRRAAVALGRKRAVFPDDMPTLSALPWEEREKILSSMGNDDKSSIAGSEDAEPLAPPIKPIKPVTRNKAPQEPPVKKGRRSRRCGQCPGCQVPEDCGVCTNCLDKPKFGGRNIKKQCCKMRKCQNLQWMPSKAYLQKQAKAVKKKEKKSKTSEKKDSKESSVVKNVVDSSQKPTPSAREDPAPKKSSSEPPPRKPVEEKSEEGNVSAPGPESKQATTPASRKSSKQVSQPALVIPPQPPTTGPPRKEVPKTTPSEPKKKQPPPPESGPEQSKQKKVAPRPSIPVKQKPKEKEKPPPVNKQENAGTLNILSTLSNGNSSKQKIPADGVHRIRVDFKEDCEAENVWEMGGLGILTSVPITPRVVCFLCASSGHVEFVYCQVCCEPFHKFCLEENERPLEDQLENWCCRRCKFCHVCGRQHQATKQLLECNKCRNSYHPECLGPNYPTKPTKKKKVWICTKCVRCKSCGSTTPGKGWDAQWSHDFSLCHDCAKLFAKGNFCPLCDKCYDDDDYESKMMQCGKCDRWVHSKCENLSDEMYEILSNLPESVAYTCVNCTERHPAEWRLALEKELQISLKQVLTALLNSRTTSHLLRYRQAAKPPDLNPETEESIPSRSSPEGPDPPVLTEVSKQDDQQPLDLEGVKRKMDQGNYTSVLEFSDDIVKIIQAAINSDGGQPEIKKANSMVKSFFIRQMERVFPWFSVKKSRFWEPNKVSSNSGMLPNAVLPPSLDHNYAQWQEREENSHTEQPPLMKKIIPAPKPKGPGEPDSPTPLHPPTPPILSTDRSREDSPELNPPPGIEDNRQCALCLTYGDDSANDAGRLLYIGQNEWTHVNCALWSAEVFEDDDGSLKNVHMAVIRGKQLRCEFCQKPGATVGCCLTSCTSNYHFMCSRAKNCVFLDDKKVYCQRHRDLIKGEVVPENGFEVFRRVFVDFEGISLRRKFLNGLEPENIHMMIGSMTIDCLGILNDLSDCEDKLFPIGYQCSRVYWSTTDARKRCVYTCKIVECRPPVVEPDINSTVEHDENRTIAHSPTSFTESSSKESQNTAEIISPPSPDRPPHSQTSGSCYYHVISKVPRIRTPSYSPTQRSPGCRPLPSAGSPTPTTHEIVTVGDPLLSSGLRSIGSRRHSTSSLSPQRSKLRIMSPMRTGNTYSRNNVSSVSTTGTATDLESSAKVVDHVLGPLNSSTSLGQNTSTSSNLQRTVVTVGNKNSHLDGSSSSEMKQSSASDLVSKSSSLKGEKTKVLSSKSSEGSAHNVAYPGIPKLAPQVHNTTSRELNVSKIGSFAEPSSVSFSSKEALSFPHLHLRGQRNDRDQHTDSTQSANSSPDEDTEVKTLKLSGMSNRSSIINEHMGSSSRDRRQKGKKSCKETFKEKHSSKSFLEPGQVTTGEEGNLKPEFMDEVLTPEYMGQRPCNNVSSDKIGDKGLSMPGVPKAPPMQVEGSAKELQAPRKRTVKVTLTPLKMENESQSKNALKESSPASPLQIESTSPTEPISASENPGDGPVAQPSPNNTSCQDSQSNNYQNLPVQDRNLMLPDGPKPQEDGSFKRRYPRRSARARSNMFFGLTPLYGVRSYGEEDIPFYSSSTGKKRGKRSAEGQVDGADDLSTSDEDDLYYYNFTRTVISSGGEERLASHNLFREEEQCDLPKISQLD
Histone-lysine N-methyltransferase 2A (Homo sapiens), sequence (Q03164 2719-3969 limits assumed): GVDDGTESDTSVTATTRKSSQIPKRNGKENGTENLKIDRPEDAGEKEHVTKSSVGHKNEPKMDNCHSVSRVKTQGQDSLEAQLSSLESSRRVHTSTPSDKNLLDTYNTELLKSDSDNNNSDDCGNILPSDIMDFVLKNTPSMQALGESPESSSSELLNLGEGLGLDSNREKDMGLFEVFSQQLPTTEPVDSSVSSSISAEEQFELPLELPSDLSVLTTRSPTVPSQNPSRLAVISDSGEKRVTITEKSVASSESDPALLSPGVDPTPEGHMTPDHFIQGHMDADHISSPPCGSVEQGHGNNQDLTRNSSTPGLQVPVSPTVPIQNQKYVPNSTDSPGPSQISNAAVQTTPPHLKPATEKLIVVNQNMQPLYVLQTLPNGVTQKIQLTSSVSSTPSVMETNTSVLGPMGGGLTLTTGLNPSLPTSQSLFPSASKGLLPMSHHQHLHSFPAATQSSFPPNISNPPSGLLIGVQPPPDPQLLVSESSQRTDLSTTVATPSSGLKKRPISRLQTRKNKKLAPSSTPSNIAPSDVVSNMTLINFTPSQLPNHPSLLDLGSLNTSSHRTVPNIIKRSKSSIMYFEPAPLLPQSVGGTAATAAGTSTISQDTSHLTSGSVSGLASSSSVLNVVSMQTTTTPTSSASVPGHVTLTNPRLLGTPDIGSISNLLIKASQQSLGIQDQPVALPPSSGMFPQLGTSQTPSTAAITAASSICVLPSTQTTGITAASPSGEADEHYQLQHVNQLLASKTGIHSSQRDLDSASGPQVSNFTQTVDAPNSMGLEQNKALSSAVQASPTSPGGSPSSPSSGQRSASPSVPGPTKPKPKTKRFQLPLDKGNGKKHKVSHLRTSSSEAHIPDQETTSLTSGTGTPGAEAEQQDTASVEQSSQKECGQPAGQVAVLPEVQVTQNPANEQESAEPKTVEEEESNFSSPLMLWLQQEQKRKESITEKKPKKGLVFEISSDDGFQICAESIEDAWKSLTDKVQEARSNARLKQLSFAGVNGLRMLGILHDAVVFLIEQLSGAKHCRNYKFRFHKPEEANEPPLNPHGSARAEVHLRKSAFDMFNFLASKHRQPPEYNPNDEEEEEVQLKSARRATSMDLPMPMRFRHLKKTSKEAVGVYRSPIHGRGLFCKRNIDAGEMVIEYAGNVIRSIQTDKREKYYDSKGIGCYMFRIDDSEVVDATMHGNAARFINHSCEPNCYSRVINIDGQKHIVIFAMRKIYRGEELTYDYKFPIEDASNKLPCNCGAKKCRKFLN

[3] = biological target: T2, Phosphatidylinositol 4,5-bisphosphate 3-kinase catalytic subunit delta isoform (Homo sapiens) (UniProt O00329); assay: Selectivity interaction (KinomeScan (DiscoverX)) EUB0000666a PIK3CD; conditions: at 10 µM
T2 sequence (whole entry): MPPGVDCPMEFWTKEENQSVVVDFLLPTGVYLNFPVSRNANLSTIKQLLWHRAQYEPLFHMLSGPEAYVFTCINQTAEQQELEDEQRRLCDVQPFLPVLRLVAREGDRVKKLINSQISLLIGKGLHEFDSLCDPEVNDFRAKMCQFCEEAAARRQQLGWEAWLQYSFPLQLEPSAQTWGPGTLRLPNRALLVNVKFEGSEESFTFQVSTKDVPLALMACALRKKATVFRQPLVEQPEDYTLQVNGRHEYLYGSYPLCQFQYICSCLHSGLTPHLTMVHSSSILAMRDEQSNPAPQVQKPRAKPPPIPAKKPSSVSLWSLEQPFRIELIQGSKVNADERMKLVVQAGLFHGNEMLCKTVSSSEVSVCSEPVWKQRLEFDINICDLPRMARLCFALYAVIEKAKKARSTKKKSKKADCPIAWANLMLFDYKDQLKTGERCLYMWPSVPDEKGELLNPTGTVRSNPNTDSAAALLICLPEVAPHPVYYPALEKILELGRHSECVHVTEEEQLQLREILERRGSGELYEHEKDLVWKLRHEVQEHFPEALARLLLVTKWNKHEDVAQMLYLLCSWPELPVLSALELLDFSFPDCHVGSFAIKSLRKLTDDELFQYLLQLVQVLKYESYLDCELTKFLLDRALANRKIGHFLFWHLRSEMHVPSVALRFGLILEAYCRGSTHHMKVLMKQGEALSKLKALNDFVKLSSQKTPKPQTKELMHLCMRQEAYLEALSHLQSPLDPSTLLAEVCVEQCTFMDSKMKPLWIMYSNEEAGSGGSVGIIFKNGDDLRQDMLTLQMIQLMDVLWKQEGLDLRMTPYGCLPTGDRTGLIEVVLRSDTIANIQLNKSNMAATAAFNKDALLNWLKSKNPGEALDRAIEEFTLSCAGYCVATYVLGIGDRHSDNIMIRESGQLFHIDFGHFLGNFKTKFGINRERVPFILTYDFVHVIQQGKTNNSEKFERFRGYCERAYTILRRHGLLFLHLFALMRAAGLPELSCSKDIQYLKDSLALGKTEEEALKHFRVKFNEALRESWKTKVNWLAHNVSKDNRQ

[4] = biological target: T3, Mitogen-activated protein kinase kinase kinase 7 (Homo sapiens) (UniProt O43318); assay: Selectivity interaction (KinomeScan (DiscoverX)) EUB0000618a MAP3K7; conditions: at 10 µM
T3 sequence (whole entry): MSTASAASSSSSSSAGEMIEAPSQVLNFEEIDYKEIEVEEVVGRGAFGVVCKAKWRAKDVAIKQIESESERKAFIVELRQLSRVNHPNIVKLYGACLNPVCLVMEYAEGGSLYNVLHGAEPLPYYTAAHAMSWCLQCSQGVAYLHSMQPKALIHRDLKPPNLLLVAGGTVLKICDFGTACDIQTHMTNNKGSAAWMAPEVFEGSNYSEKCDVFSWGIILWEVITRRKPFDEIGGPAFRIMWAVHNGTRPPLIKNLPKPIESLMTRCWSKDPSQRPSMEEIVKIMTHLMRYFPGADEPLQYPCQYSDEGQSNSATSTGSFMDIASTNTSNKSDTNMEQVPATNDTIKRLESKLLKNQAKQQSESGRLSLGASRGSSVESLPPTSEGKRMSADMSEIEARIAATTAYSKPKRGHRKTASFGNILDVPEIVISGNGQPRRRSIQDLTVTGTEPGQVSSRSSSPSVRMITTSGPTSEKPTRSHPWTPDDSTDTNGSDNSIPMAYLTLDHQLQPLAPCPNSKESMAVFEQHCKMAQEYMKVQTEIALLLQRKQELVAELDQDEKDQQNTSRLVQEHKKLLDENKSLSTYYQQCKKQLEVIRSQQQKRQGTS

- % of inhibition [1]: -14.8%
SMILES: Cn1cc(-n2cnc3c(NCc4nc5cc(Cl)c(Cl)cc5[nH]4)nc(N4CCOCC4)nc32)cn1

- % of activity ([2]; at 1 µM): 99.3%
- % of activity ([2]; at 10 µM): 100%
SMILES: Cc1cc(C)cc([C@H]2c3cc(C)ccc3NC(=O)CN2C(=O)c2ccc(Br)s2)c1

SMILES: O=C(NOC[C@H](O)CO)c1ccc(F)c(F)c1Nc1ccc(I)cc1F
- % of control [3]: 40%

SMILES: O[C@H]1CC[C@H](Nc2ncc3nc(Nc4c(F)cc(F)cc4F)n([C@H]4CCOC4)c3n2)CC1
- % of control [4]: 99%
